In test [1] the test system is mouse spleen cells (T-lymphocyte response to Con-A). Briefly: Concanavalin A assay (mouse spleen cell mitogen induced blastogenesis). The class given is cell-based. As to conditions: estimated IC50, Con-A 1.25 μg/ml, 3 days, MTT. The text has this: iii Concanavalin A assay (the mouse spleen cell mitogen induced blastogenesis).
(§1) The MLR assay measures the effects of a study compound on the activation and antigen presentation of T-lymphocytes, therefore determining immunomodulatory properties. The mouse spleen cell mitogen-induced blastogenesis and the BUD-8 human fibroblast proliferation assays measure the effects of the compounds of the present invention on cellular proliferation of cells involved in the pathogenesis of autoimmune diseases. These two assays are appropriate as screens to ascertain anti-inflammatory and/or autoimmune beneficial activity and are art accepted for such purposes.
It is known that the induction and maintenance of most inflammatory diseases are typically due to the unrestricted activity of T-lymphocytes. Therefore, it is advantageous to identify compounds which are modulators of T-lymphocyte activity for eventual use in the regulation of inflammatory diseases, including acquired immune deficiency syndrome, psoriasis, systemic lupus, erythromatosus, and rheumatoid arthritis.
A simple method is used to screen compounds for their ability to modulate T-lymphocyte activity which comprises assessing the capacity of the compounds to alter the activation of murine spleen cells in response to T-lymphocyte mitogen activators, such as Conconavalin-A (Con-A). The method used to measure the effects of the compounds of the present invention on the blastogenic response of spleen cells to the T-lymphocyte mitogen (Con-A) is as follows:
The response of a mouse spleen cells to the T cell mitogen Con-A is a classical assay. In this assay, mice were euthanized by cervical dislocation and their spleens removed surgically. A single cell suspension of the spleens was prepared in culture medium (RPMI-1640 with hepes, supplemented with 10% calf serum, 2 mM glutamine, 500 units penicillin/streptomycin, and 4×10^-5 M 2-mercaptoethanol) using a Teflon pestle. The cells were centrifuged at 1500 RPM and the pellets resuspended in ACT (0.15M Tris, 0.14M Ammonium chloride, pH 7.2) in orde to lyse the red blood cells. After a five minutes incubation in a 37° C. waterbath, the cells were washed and resuspended in culture medium. The splenic lymphocytes were counted using an electronic Coulter Counter and diluted to 5.0×10^6 cells/ml.
The test articles were diluted in culture medium to the appropriate concentrations. 100 μl aliquots were distributed to triplicate wells in a 96-well microtiter plate. 50 μl of lymphocytes (2.5×10^5 cells) were added to each well. Control wells with vehicle and wells with media were also run. Plates were incubated for one hour at 37° C. 50 μl of Con-A ([…]) were then added to the wells to result in a final concentration of 1.25 μg/ml. After incubation at 37° C. with 5% carbon dioxide for 3 days, proliferation was measured by adding 20 μl of MTT (10 mg/mlin PBS) [3-(4,5-dimethyl-thiazol-2-yl)-2,5-diphenyl tetrazolium bromide] to each well. Plates were incubated for 4 hours at 37° C., after which 180 μl of 10% SDS in PBS were added. After an overnight incubation, the optical density (OD) of each well was read using a Molecular Devices microplate reader at 570-650 nm.
(§2) Duplicate cultures without Con-A were also set up. After 3 days of incubation, supernatants were assayed for lactate dehydrogenase activity to determine the viability of the cells, which is an indication of the toxicity of the test article on the splenic lymphocytes. 0.1 ml of supernatant was mixed with 0.1 ml of the LDH substrate mixture which contains 5.4×10^-2 M L(+) lactate, 6.6×10^-4 M 2-p-iodophenyl-3-p-nitrophenyl tetrazolium chloride, 2.8×10^-4 M phenazine methosulfate, 1.3×10^-3 M NAD, and 0.2M Tris buffer, pH 8.2. Plates were read immediately for 5 minutes at 490 nm using a Molecular Devices microplate reader.
The mean for each test article treated group was determined and compared to the mean of the control group. […]

For test [2], the system named is BUD-8 human skin fibroblast cells. Briefly: BUD-8 human cell line fibroblast proliferation assay. The class given is cell-based. Particulars: estimated IC50, BUD-8 cells, 3 days, MTT.
Description: ii BUD-8 human cell line fibroblast proliferation assay.
as §1
The skin cell fibroblast line, BUD-8, was originally derived from the normal skin of a person and can now be obtained from the American Type Culture Collection, Rockville, Md. The concentration of the compounds which were used in this assay were: 1, 10, 30, 100, and 300 μM. The vehicle was used as the negative control. Test compounds were prepared in DMSO at a stock concentration of 300 mM. Appropriate dilutions were made in culture medium.
In this assay BUD-8 cells were collected, counted, and diluted to 2×10^4 cells/ml. 0.1 ml was plated per well to give 2×10^3 cells/well. The compounds of the present invention were diluted in culture medium to the appropriate concentrations. Aliquates of 100 μl were distributed to triplicate wells. Control wells with vehicle and wells with media were also run. After a three day incubation at 37° C. with 5% carbon dioxide, proliferation was measured by adding 20 μl of MTT (10 mg/ml in PBS) (3-[4,5-dimethyl thiazol-2-yl]-2,5-diphenyl-tetrazolium bromide) to each well. Plates were incubated for 4 hours at 37° C., after which 180 μl of 10% SDS in PBS were added. After an overnight incubation, the optical density (OD) of each well was read using a Molecular Devices microplate reader at 570-650 nm.
as §2, with “cultures” for “cultures without Con-A”, “set up to measure viability.” for “set up.”, “dehydrogenase (LDH)” for “dehydrogenase”, “the BUD-8 cells.” for “the splenic lymphocytes.”, “of supernatent” for “of supernatant”, “Tris buffer.” for “Tris buffer,”
The mean for each test article treated group was determined and compared to the mean of the control group. The percent change from the control was calculated, and the IC50 estimated. The criteria used to establish activity levels were:
Sixteen (16) test articles were assayed for their ability to inhibit fibroblast proliferation. The test article were added to BUD-8 cell cultures to give final concentrations of 1, 10, 30, 100, and 300 μM. The proliferation observed in the test article treated wells were compared to the DMSO control wells.

Where [3] appears, read: Mus musculus, T-lymphocyte, 72 h.
The mark [4] stands for this setting: Homo sapiens, Skin fibroblast, 72 h.

As to `CCCCCCCCCOCCCO[C@H]1O[C@H]([C@H](O)CN2CCCC2)[C@@H]2OC(C)(C)O[C@H]12` [Compound 3, n-Nonyloxypropyl 2,3-O-(1-methylethylidene)-6-deoxy-pyrrolidinyl-α-D-mannofuranoside], the IC50 in test [1] (setting [3]) is 3.3 µM; in test [2] (setting [4]), 18 µM.

For `CCCCCCCCCOCCCO[C@H]1O[C@H]([C@H](O)CN2CCCCC2)[C@@H]2OC(C)(C)O[C@H]12` [Compound 4, n-Nonyloxypropyl 2,3-O-(1-methylethylidene)-6-deoxy-6-piperidinyl-α-D-mannofuranoside], the results for the IC50 in test [1] (setting [3]) and in test [2] (setting [4]) were 2.7 µM and 35 µM, respectively.

Turning to `CCCCCCCCCOCCCO[C@H]1O[C@H]([C@H](O)CN2CCOCC2)[C@@H]2OC(C)(C)O[C@H]12` [Compound 5, n-Nonyloxypropyl 2,3-O-(1-methylethylidene)-6-deoxy-6-morpholinyl-α-D-mannofuranoside], the values for the IC50 in test [1] (setting [3]) and in test [2] (setting [4]) were 17 µM and > 200 µM, respectively.

For the molecule `CCCCCCCCCOCCCO[C@H]1O[C@H]([C@H](O)CN2CCCCCC2)[C@@H]2OC(C)(C)O[C@H]12` [Compound 6, n-Nonyloxypropyl 2,3-O-(1-methylethylidene)-6-deoxy-6-hexamethyleneimino-α-D-mannofuranoside], the IC50 in test [1] (setting [3]) is 3.2 µM; in test [2] (setting [4]), 38 µM.

With `CCCCCCCCCOCCCO[C@H]1O[C@H]([C@H](O)CNCCCCCCC)[C@@H]2OC(C)(C)O[C@H]12` [Compound 8, n-Nonyloxypropyl 2,3-(1-methylethylidene)-6-deoxy-6-aminoheptyl-α-D-mannofuranoside], the figures for the concentration for half-maximal inhibition (IC50) in test [1] (setting [3]) and in test [2] (setting [4]) were 17 µM and 16 µM, respectively.

In the case of `CCCCCCCCCOCCCO[C@H]1O[C@H]([C@@H](C)OCCCN(C)C)[C@@H]2OC(C)(C)O[C@H]12` [Compound 10, n-Nonyloxypropyl 2,3-O-(1-methylethylidene)-6-deoxy-5-O-(N,N-dimethylaminopropyl)-α-D-mannofuranoside], the results for the IC50 in test [1] (setting [3]) and in test [2] (setting [4]) were 3 µM and 17 µM, respectively.

Take `CCCCCCCCCOCCCO[C@H]1O[C@H]([C@@H](C)OCCN2CCCC2)[C@@H]2OC(C)(C)O[C@H]12` [Compound 12, n-Nonyloxypropyl 2,3-O-(1-methylethylidene)-6-deoxy-5-O-(N'-ethylpyrrolidinyl)-α-D-mannofuranoside]: the concentration for half-maximal inhibition (IC50) in test [1] (setting [3]) is 3.2 µM; in test [2] (setting [4]), 42 µM.

For `CCCCCCCCCOCCCO[C@H]1O[C@H]([C@H](C)N2CCCC2)[C@@H]2OC(C)(C)O[C@H]12` [Compound 15, n-Nonyloxypropyl 5,6-dideoxy-2,3-O-(1-methylethylidene)-5-pyrrolidinyl-β-L-gulofuranoside], the 50% inhibitory concentration (IC50) was 2.8 µM in test [1] (setting [3]) and 170 µM in test [2] (setting [4]).

As to `CC1(C)O[C@@H]2[C@H](O1)[C@@H](OCCCc1ccccc1)O[C@@H]2[C@H](O)CN1CCCC1` [Compound 20, Phenylpropyl 6-deoxy 2,3-O-(1-methylethylidene)-6-pyrrolidinyl-α-D-mannofuranoside], the IC50 in test [1] (setting [3]) is 59 µM; in test [2] (setting [4]), > 300 µM.

For `CCCCCCCNC[C@@H](O)[C@H]1O[C@H](OCCCc2ccccc2)[C@H]2OC(C)(C)O[C@H]21` [Compound 21, Phenylpropyl 6-deoxy 2,3-O-(1-methylethylidene)-6-heptylamino-α-D-mannofuranoside], the results for the 50% inhibitory concentration (IC50) in test [1] (setting [3]) and in test [2] (setting [4]) were 7 µM and 19 µM, respectively.

Turning to `CC1(C)O[C@@H]2[C@H](O1)[C@@H](OCCCc1ccccc1)O[C@@H]2[C@H](O)CNCCCN1CCCC1` [Compound 22, Phenylpropyl 6-deoxy 2,3-O-(1-methylethylidene)-6-aminopropylpyrrolidinyl-α-D-mannofuranoside], the results for the 50% inhibitory concentration (IC50) in test [1] (setting [3]) and in test [2] (setting [4]) were 2.5 µM and 16 µM, respectively.

Consider `C[C@@H]([C@H]1O[C@H](OCCCc2ccccc2)[C@H]2OC(C)(C)O[C@H]21)N1CCCC1` [Compound 24, Phenylpropyl 5,6-dideoxy 2,3-O-(1-methylethylidene)-5-pyrrolidinyl-β-L-gulofuranoside], for which the figures for the half-inhibitory concentration (IC50) in test [1] (setting [3]) and in test [2] (setting [4]) were 28 µM and 225 µM, respectively.

As to `C[C@@H](OCCCN(C)C)[C@H]1O[C@H](OCCCc2ccccc2)[C@H]2OC(C)(C)O[C@H]21` [Compound 26, Phenylpropyl 6-deoxy 2,3-O-(1-methylethylidene)-5-O-3'-(N'N'-dimethylamino-n-propyl)-α-D-mannofuranoside], the IC50 is 18 µM in test [1] (setting [3]) and 65 µM in test [2] (setting [4]).

In the case of `C[C@@H](OCCN1CCCC1)[C@H]1O[C@H](OCCCc2ccccc2)[C@H]2OC(C)(C)O[C@H]21` [Compound 27, Phenylpropyl 6-deoxy 2,3-O-(1-methylethylidene)-5-O-(N'-ethylpyrrolidinyl)-α-D-mannofuranoside], the figures for the IC50 in test [1] (setting [3]) and in test [2] (setting [4]) were < 3 µM and 148 µM, respectively.

As for `CC1(C)O[C@@H]2[C@H](O1)[C@@H](OCCCCN1CCCC1)O[C@@H]2[C@H](O)CO` [Compound 29, 4'-(1-Pyrrolidinyl)butyl 2,3-O-(1-methylethylidene)-α-D-mannofuranoside], the IC50 in test [1] (setting [3]) is 49 µM; in test [2] (setting [4]), 190 µM.

As to “n-Nonyloxypropyl 2,3-O-(1-methylethylidene)-6-deoxy-6-aminothylpyrrolidinyl-α-D-mannofuranoside [Compound 7]”, the results for the half-maximal inhibitory concentration (IC50) in test [1] and in test [2] were 2.9 µM and 105 µM, respectively.

Source of the values: US5360794A, “Disubstituted and deoxy disubstituted derivatives of α-D-mannofuranosides and β-L-gulofuranosides having anti-inflammatory and anti-proliferative activity” (Medicarb Inc., priority 1992, dated 1994).
